Measurements as given in US6410545B1, “Lipid lowering quinazoline dietary supplement composition” (Parker Hughes Institute, priority 1998, dated 2002).

Assays:
Format in all cases: in vivo
[1] = test system: apo e−/− mice; assay: Serum lipoprotein profile (VLDL-C, HDL-C) by FPLC in apo e−/− mice; conditions: for HDL-C / VLDL-C: apo e−/− mice, one week
Protocol: Three- to four-week old apolipoprotein E deficient (apo E^−/−) mice were the progeny of breeding pairs of apo E knockout (apo EKO) mice obtained from Jackson Labs. (Bar Harbor, Me., USA). Mice were fed either regular rodent chow (5% fat and 0% cholesterol) (Teklad-LM 485, Harlan Teklad, Madison, Wis., USA), the Paigen's cocoa butter diet, or the Western diet (21.22% fat and 0.2% cholesterol) (Harlan Teklad, Madison, Wis., USA) for two weeks prior to treatment.
(§1) Animals were treated with test compounds by intraperitoneal injection daily for 7 days. A range of doses was administered. Control animals received vehicle alone. The effect of quinazoline derivatives on total cholesterol, LDL, HDL, liver enzymes, and glucose was analyzed. The mice tissues were also examined histologically.
(§2) Serum cholesterol profiles were examined by Fast Protein Liquid Chromatography (FPLC) using 100 μl of serum per run. The serum was passed over two Superose™ 6 HR 10/30 connected in tandem equilibrated in phosphate buffered saline (PBS), using the FPLC system from Pharmacia Biotech (Piscataway, N.J., USA) consisting of a controller LCC-501 plus connected to a UV detector (UV-MII), two P500 pumps, and a Frac-100 fraction collector. The FPLC was remotely controlled and operated by the FPLC director program operated on an IBM computer. The system was operated at a flow rate of 0.5 ml/minute and fractions were collected at 0.5 ml/fraction. Cholesterol concentration of each fraction was determined as described above and plotted against the fraction numbers to obtain the serum cholesterol profile.
(§3) To determine the serum concentrations of LDL/β-VLDL and HDL, the sums of the LDL/β-VLDL peak (fractions 29-35) and the HDL peak (fractions 53-63) were divided by 0.1. To obtain the IC50 and the minimum β-VLDL and HDL concentrations, the concentrations of β-VLDL and HDL were plotted against the dosage. Best fitted exponential decay curves were obtained using the equation: Concentration of HDL or LDL/β-VLDL=Aexp(−BX)+E, where A+E equals the concentration of HDL or LDL/β-VLDL at the dosage of 0 μg/day and E equals the mathematical minimum concentration of HDL or β-VLDL, and B equals 0.69/IC50. Best fitted curves were obtained using the Graphpad Inplot program, Graphpad Software, San Diego, Calif., USA.
On regular rodent chow, the serum total cholesterol level of apo e^−/− mice was 836±57 mg/dL (n=47). After one week therapy with 8 mg/kg/day WHI-P164 (n=12), the mean serum total cholesterol level was reduced to 551±29 mg/dL (p=0.02).
When challenged with a cholesterol-rich diet, these animals developed frank hypercholesterolemia due to delayed clearance of intestinal chylomicrons which shuttle the dietary cholesterol from the intestine to the liver. In the present study, all of the 46 ApoE-deficient mice that were fed Western diet (14) became severely hypercholesterolemic with a mean serum total cholesterol level of 1491±59 mg/dL. One week WHI-P164 therapy reduced the mean serum total cholesterol level of hypercholesterolemic apo e^−/− mice to 1194±84 mg/dL (p=O.006) at a dose level of 8 mg/kg/day (n=19) and to 876±57 mg/dL (p<0.0001) at a dose level of 40 mg/kg/day (n=17) (Table 3).

[2] = test system: hypercholesterolemic C57B⅙ mice; assay: Serum lipoprotein profile (VLDL-C, HDL-C) by FPLC in C57B⅙ mice on cocoa butter diet; conditions: for HDL-C / VLDL-C: C57B1/6, cocoa butter diet
Protocol: Three- to four-week old C57B⅙ male mice (Taconic, Germantown, N.Y., USA) were kept in micro-isolator cages on a 12-hour day/night cycle and fed the Paigen's cocoa butter diet (15.8% fat, 1.25% cholesterol, and 0.5% sodium cholate) (Harlan Teklad, Madison, Wis., USA) for two weeks prior to initiation of lipid lowering therapy. Paigen's diet is described in Nishina et.al., 1993, J. Lipid Res. 34: 1413-1422.
as §1, §2, §3
As shown by their serum lipoprotein profiles (FIG. 1), hypercholesterolemic C57B⅙ mice preferentially accumulated cholesterol rich VLDL (171±19 mg/dL, n=4 versus 7±4 mg/dL, n=3, p=0.0008) but no changes in HDL cholesterol levels (90±9 mg/dL, n=4 versus 86±13 mg/dL, n=3, p=0.8) (Table 2). […] In WHI-P164 treated mice, serum VLDL-C decreased immediately from 171±19 mg/dL (n=4), to 99±13 mg/dL (n=4) at the 1.6 mg/kg/day dose level (P=0.02) and further decreased to 78±15 mg/dL (n=4) at the 16 mg/kg/day dose level (p=0.1) (Table 1). […] Thus, WHI-P164 was only able to reduce VLDL-C by […].

[3] = test system: apo e−/− mice; assay: Regression of pre-existing atherosclerotic lesions (Sudan IV stained aortas) in apo e−/− mice; conditions: apo e−/− mice 7 months on Western diet, 40mg/kg/day for one month
Source text: Aortas from untreated (FIG. 6A), vehicle treated (FIG. 6B), and WHI-P164 treated (FIG. 6C) animals were stained with Sudan IV to show the fatty streaks. Aortas of untreated control mice were obtained at 7 months to reflect the pretreatment condition of the test groups. Aortas of vehichle treated or WHI-P164 treated test mice were obtained at 8 months following a one month treatment program. Statistical comparisons indicate **p=0.002 for untreated controls versus WHI-P164 treated test mice and p=0.007 for vehicle controls versus WHI-P164 treated mice.
The effectiveness of WHI-P164 against pre-existing atherosclerotic lesions in apo e^−/− mice kept 7 months on high fat Western diet was examined. apo e^−/− mice were treated with either vehicle control or WHI-P164 at 40mg/kg/day for one month. […] Treatment with WHI-P164 caused a marked regression of the atherosclerotic lesions with fatty streaks covering only 23±2% (n=7) of the aortic surface (FIG. 6B), as compared to 40±5% in untreated mice (n=3) (FIG. 6A) (p=0.002) and 40±5% in the vehicle-treated mice (n=8) (FIG. 6C) (p=0.007).

SMILES: COc1cc2ncnc(C(=O)c3cccc(Br)c3)c2cc1OC [WHI-P164, 4-(3′-bromobenzoyl)-6,7-dimethoxyquinazoline]
- HDL-C ([1]; Western diet, 40 mg/kg/day): 90 ± 4 mg/dL
- VLDL-C ([1]; Western diet, 40 mg/kg/day): 587 ± 4 mg/dL
- HDL-C ([1]; rodent chow, 8 mg/kg/day): 50 ± 10 mg/dL
- VLDL-C ([1]; rodent chow, 8 mg/kg/day): 190 ± 13 mg/dL
- Reduction of β-VLDL/LDL-cholesterol levels ([1]; hypercholesterolemic apo e−/− mice): 63%
- HDL-C ([2]; dose 1.6 mg/kg): 93 ± 8 mg/dL
- VLDL-C ([2]; dose 1.6 mg/kg/day): 99 ± 13 mg/dL
- HDL-C ([2]; dose 4.0 mg/kg): 86 ± 5 mg/dL
- VLDL-C ([2]; dose 4.0 mg/kg): 106 ± 15 mg/dL
- HDL-C ([2]; dose 8.0 mg/kg): 81 ± 9 mg/dL
- VLDL-C ([2]; dose 8.0 mg/kg): 101 ± 7 mg/dL
- HDL-C ([2]; dose 16.0 mg/kg): 74 ± 10 mg/dL
- VLDL-C ([2]; dose 16 mg/kg/day): 78 ± 15 mg/dL
- Effect on serum HDL-C levels ([2]; C57B⅙ mice, cocoa butter diet): did not significantly affect
- Calculated effective dose (ED50) for VLDL-C lowering ([2]; C57B⅙ mice, cocoa butter diet, fitted exponential decay curve): 0.4 mg/kg/day
- Minimum serum VLDL-C level ([2]; C57B⅙ mice, cocoa butter diet, mathematical minimum of fitted curve): 94 ± 9 mg/dL
- Reduction of VLDL-C ([2]; C57B⅙ mice, cocoa butter diet, maximal reduction): 45%
- Reduction of LDL-C ([2]; hypercholesterolemic C57B⅙ mice on a high calorie diet): 45%
- Aortic surface covered by fatty streaks stainable by Sudan IV [3]: 23±2%
